Test results taken from patent US20220324835A1 (Nurix Therapeutics, Inc., priority 2018, published 2022).

Assays:
T-cell [1] = assay: CD25 cell surface staining on T-cells stimulated with anti-CD3 antibody alone (Biological Example 2); type: cell-based; settings: primary human total T-cells, baseline = anti-CD3/anti-CD28 stimulated cells without inhibitor, read-out: CD25 staining, Anti-CD3 stimulation, fold change over baseline; for fold induction at 1 µM: 1 μM compound; for fold induction at 8 µM: 8 μM compound
Cbl-b [2] = target: T1, Cbl-b (Homo sapiens, UniProt Q13191); assay: Cbl-b inhibition assay (Cbl-b activity assay, FRET, Biological Example 1; 100 mM NaCl, 60 nM Src kinase); type: biochemical; settings: upper bound stated in text lists; read-out: IC50 values in the Cbl-b inhibition assay of Biological Example 1
In short: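 Steps: Src kinase phosphorylates N-terminal biotinylated Avi-tagged Cbl-b; phosphorylated Cbl-b binds Bodipy-fluorescein ubiquitin-loaded UbcH5B; streptavidin-terbium on Cbl-b sits close to the fluorescein label, producing FRET. Inhibitors block UbcH5B-Ub binding.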

T-cell [3] = assay: CD25 cell surface staining on T-cells co-stimulated with anti-CD3 and anti-CD28 antibody (Biological Example 2); type: cell-based, human; settings: Homo sapiens, T-cell, primary human total T-cells, baseline = anti-CD3/anti-CD28 stimulated cells without inhibitor, read-out: CD25 staining, Anti-CD3/Anti-CD28 stimulation, fold change over baseline; for fold induction at 0.3 µM: 0.3 μM compound; for fold induction at 1 µM: 1 μM compound; for fold induction at 4 µM: 4 μM compound
In short: (§1)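 T-cells were stimulated with anti-CD3 antibody alone or with anti-CD28 antibody, in the presence or absence of Cbl-b inhibitor. IL-2 secretion or CD25 surface staining was measured, and values expressed as fold over the uninhibited baseline […].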

Cbl-b [4] = target: T1, Cbl-b; assay: Cbl-b activity assay (Cbl-b inhibition assay), TR-FRET of Cbl-b interaction with UbcH5B-Ub; type: biochemical; settings: assay buffer with 100 mM NaCl, 60 nM Src kinase; read-out: Cbl-b activity IC50
In short: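 UbcH5B (C85K) conjugated to N-terminally Bodipy-Fluorescein-labeled ubiquitin served as the fluorescent partner. After compound preincubation, Src kinase (60 nM) with 1 mM ATP and 5 mM MgCl2 (final) was added for 1.5 h, followed by a further 1 h incubation. Some values were obtained with 50 mM NaCl and 30 nM Src.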

T-cell [5] = assay: IL-2 secretion from T-cells co-stimulated with anti-CD3 and anti-CD28 antibody (Biological Example 2); type: cell-based, human; settings: Homo sapiens, T-cell, primary human total T-cells, baseline = anti-CD3/anti-CD28 stimulated cells without inhibitor, read-out: IL-2 secretion, Anti-CD3/Anti-CD28 stimulation, fold change over baseline; for fold induction at 0.3 µM: 0.3 μM compound; for fold induction at 1 µM: 1 μM compound; for fold induction at 4 µM: 4 μM compound
In short: as §1

T-cell [6] = assay: IL-2 secretion from T-cells stimulated with anti-CD3 antibody alone (Biological Example 2); type: cell-based; settings: primary human total T-cells, read-out: IL-2 secretion, Anti-CD3 stimulation, fold change over baseline; for fold induction at 1 µM: 1 μM compound; for fold induction at 8 µM: 8 μM compound
Cbl-b (residues 36-427) = Cbl-b (residues 36-427) (Homo sapiens, UniProt Q13191); assay: Cbl-b binding assay (SPR, Biacore T200); settings: 20° C., 1:1 binding model
In short: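 Steps: capture protein on NeutrAvidin surface; inject compound dilutions (8 or 10 points from 100 or 50 μM) 50 s; allow 90-180 s dissociation; regenerate 20 s with 0.3 M NaCl. Runs at 20° C in HEPES pH 7.5/100 mM NaCl/2% DMSO; 1:1 fitting.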

T1 sequence (Q13191 36-427): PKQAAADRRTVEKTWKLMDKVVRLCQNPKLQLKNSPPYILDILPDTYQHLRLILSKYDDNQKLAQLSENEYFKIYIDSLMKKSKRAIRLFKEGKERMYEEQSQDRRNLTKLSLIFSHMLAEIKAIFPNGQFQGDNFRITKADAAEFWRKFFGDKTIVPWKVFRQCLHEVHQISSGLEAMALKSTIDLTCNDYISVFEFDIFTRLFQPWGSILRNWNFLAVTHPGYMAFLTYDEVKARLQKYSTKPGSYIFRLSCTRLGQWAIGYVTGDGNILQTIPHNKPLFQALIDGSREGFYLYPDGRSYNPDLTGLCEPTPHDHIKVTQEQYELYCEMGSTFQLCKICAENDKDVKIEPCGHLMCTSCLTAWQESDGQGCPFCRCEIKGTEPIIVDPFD
Chain of Cbl-b (residues 36-427) (Q13191 36-427): as above

Compound	fold induction at 1 µM (T-cell [1])	fold induction at 8 µM (T-cell [1])	IC50 (Cbl-b [2])	fold induction at 0.3 µM (T-cell [3])	fold induction at 1 µM (T-cell [3])	fold induction at 4 µM (T-cell [3])	IC50 (Cbl-b [4])	fold induction at 0.3 µM (T-cell [5])	fold induction at 1 µM (T-cell [5])	fold induction at 4 µM (T-cell [5])	fold induction at 1 µM (T-cell [6])	fold induction at 8 µM (T-cell [6])	Kd (Cbl-b (residues 36-427))
C[C@H](Cc1nncn1C)c1cccc(N2Cc3c(cc(CN4CC[C@@H](F)C4)cc3C(F)(F)F)C2=O)c1 [Compound 400, 6-(((R)-3-fluoropyrrolidin-1-yl)methyl)-2-(3-((R)-1-(4-methyl-4H-1,2,4-triazol-3-yl)propan-2-yl)phenyl)-4-(trifluoromethyl)isoindolin-1-one]	> 1	> 1	≤ 100 nM	1.01 to 1.3	1.01 to 1.3	1.31 to 1.5	< 100 nM	5 to 7.5	> 7.5	> 7.5	> 0.201	> 0.201	< 100 nM
C[C@H](Cc1nncn1C)c1cccc(N2Cc3c(cc(CN4CC(F)C4)cc3C(F)(F)F)C2=O)c1 [Compound 401, (R)-6-((3-fluoroazetidin-1-yl)methyl)-2-(3-(1-(4-methyl-4H-1,2,4-triazol-3-yl)propan-2-yl)phenyl)-4-(trifluoromethyl)isoindolin-1-one]	> 1	> 1	≤ 100 nM	1.01 to 1.3	1.01 to 1.3	1.31 to 1.5	< 100 nM	2.51 to 5	> 7.5	> 7.5	0.151 to 0.2	> 0.201	< 100 nM
C[C@H](Cc1nncn1C)c1cccc(N2Cc3c(cc(CN4CC(F)(F)C4)cc3C(F)(F)F)C2=O)c1 [Compound 402, (R)-6-((3,3-difluoroazetidin-1-yl)methyl)-2-(3-(1-(4-methyl-4H-1,2,4-triazol-3-yl)propan-2-yl)phenyl)-4-(trifluoromethyl)isoindolin-1-one]	> 1	> 1	≤ 100 nM	1.01 to 1.3	1.31 to 1.5	1.31 to 1.5	< 100 nM	5 to 7.5	> 7.5	> 7.5	0.151 to 0.2	> 0.201	< 100 nM
C[C@H](Cc1nncn1C)c1cccc(N2Cc3c(cc([C@@H](C)N4CC[C@H](F)C4)cc3C(F)(F)F)C2=O)c1 [Compound 403, 6-((R)-1-((S)-3-fluoropyrrolidin-1-yl)ethyl)-2-(3-((R)-1-(4-methyl-4H-1,2,4-triazol-3-yl)propan-2-yl)phenyl)-4-(trifluoromethyl)isoindolin-1-one]	> 1	> 1	≤ 100 nM	1.01 to 1.3	1.01 to 1.3	1.31 to 1.5	< 100 nM	5 to 7.5	> 7.5	> 7.5	0.151 to 0.2	> 0.201	< 100 nM
Cc1conc1C[C@@H](C)c1cccc(N2Cc3c(cc(C(=O)N4CC[C@H](O)C4)cc3C(F)(F)F)C2=O)c1 [Compound 407, 6-((S)-3-Hydroxypyrrolidine-1-carbonyl)-2-(3-((R)-1-(4-methylisoxazol-3-yl)propan-2-yl)phenyl)-4-(trifluoromethyl)isoindolin-1-one]	> 1	> 1	≤ 100 nM	1.01 to 1.3	1.01 to 1.3	1.01 to 1.3	< 100 nM	2.51 to 5	5 to 7.5	> 7.5	0.101 to 0.15	> 0.201	< 100 nM
Cn1cnnc1[C@@H]1C[C@@H]1c1cccc(N2Cc3c(cc(C#N)cc3C(F)(F)F)C2=O)c1 [Compound 408, 2-(3-((1S,2R)-2-(4-methyl-4H-1,2,4-triazol-3-yl)cyclopropyl)phenyl)-3-oxo-7-(trifluoromethyl)isoindoline-5-carbonitrile]	0.601 to 0.8	0.801 to 1	≤ 300 nM	1.01 to 1.3	1.01 to 1.3	1.01 to 1.3	100 to 300 nM	1.01 to 2.5	1.01 to 2.5	2.51 to 5	< 0.05	0.101 to 0.15	100 to 300 nM
Cn1cnnc1CC1(c2cccc(N3Cc4c(cc(CN5CCC(F)(F)C5)cc4C(F)(F)F)C3=O)c2)COC1 [Compound 411, 6-((3,3-difluoropyrrolidin-1-yl)methyl)-2-(3-(3-((4-methyl-4H-1,2,4-triazol-3-yl)methyl)oxetan-3-yl)phenyl)-4-(trifluoromethyl)isoindolin-1-one]	> 1	> 1	≤ 100 nM	1.01 to 1.3	1.01 to 1.3	1.01 to 1.3	< 100 nM	2.51 to 5	> 7.5	> 7.5	> 0.201	> 0.201	< 100 nM
CC(c1cc2c(c(C(F)(F)F)c1)CN(c1cccc([C@H](C)Cc3nncn3C)c1)C2=O)N1CC[C@H](O)C1 (stereo partly drawn) [Compound 416, 6-(1-((S)-3-hydroxypyrrolidin-1-yl)ethyl)-2-(3-((R)-1-(4-methyl-4H-1,2,4-triazol-3-yl)propan-2-yl)phenyl)-4-(trifluoromethyl)isoindolin-1-one]	> 1	> 1	≤ 100 nM	1.31 to 1.5	1.31 to 1.5	1.51 to 1.75	< 100 nM	2.51 to 5	> 7.5	> 7.5	0.151 to 0.2	> 0.201	< 100 nM
C[C@H](Cc1nncn1C)c1cccc(N2Cc3c(cc(CN4CC(O)C(F)(F)C4)cc3C(F)(F)F)C2=O)c1 (stereo partly drawn) [Compound 417, 6-((3,3-difluoro-4-hydroxypyrrolidin-1-yl)methyl)-2-(3-((R)-1-(4-methyl-4H-1,2,4-triazol-3-yl)propan-2-yl)phenyl)-4-(trifluoromethyl)isoindolin-1-one]	> 1	> 1	≤ 100 nM	1.01 to 1.3	1.31 to 1.5	1.31 to 1.5	< 100 nM	2.51 to 5	5 to 7.5	> 7.5	0.101 to 0.15	> 0.201	< 100 nM
C[C@H](Cc1nncn1C)c1cccc(N2Cc3c(cc(CN4C[C@@H](F)[C@@H](O)C4)cc3C(F)(F)F)C2=O)c1 [Compound 418]	> 1	> 1	≤ 100 nM	1.01 to 1.3	1.31 to 1.5	1.31 to 1.5	< 100 nM	2.51 to 5	5 to 7.5	> 7.5	0.151 to 0.2	> 0.201	< 100 nM
